The assay relates to CD2F1 mice, L1210 leukemia ip, survival T/C. As to the kind of experiment: NCI In Vivo Anticancer Drug Screen. Data for tumor model L1210 Leukemia (intraperitoneal) in CD2F1 (CDF1) mice. As to conditions: higher = longer survival. The gist of the method: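 In this screen, transplantable tumors were grown in mice given either the compound or its vehicle. Results were expressed as the treated measurement relative to the control measurement.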

The mark [1] stands for this setting: endpoint: mean survival time, dose: 100.0 mg/kg/injection, schedule: Q01DX009 (ip), vehicle: saline with Tween-80.
Where [2] appears, read: endpoint: mean survival time, dose: 100.0 mg/kg/injection, schedule: Q04DX003 (ip), vehicle: saline with Tween-80.
Where [3] appears, read: endpoint: mean survival time, dose: 200.0 mg/kg/injection, schedule: Q01DX009 (ip), vehicle: saline with Tween-80.
Where [4] appears, read: endpoint: mean survival time, dose: 200.0 mg/kg/injection, schedule: Q04DX003 (ip), vehicle: saline with Tween-80.
The mark [5] stands for this setting: endpoint: mean survival time, dose: 400.0 mg/kg/injection, schedule: Q01DX009 (ip), vehicle: saline with Tween-80.
Where [6] appears, read: endpoint: mean survival time, dose: 400.0 mg/kg/injection, schedule: Q04DX003 (ip), vehicle: saline with Tween-80.
Setting [7] is: endpoint: mean survival time, dose: 100.0 mg/kg/injection, schedule: Q04DX002 (ip), vehicle: saline with Tween-80.
[8] abbreviates: endpoint: mean survival time, dose: 200.0 mg/kg/injection, schedule: Q04DX002 (ip), vehicle: saline with Tween-80.
[9] abbreviates: endpoint: mean survival time, dose: 400.0 mg/kg/injection, schedule: Q04DX002 (ip), vehicle: saline with Tween-80.

Structures are written as SMILES. Several values for one entry are separate records, joined by “and”; a condition that tells them apart may be missing. Equal values may be shown once. Inconclusive results and toxic doses are left out.

This is an account of results in PubChem BioAssay AID256 (DTP/NCI, 2004).

Take `NC(=O)Nc1ccccc1`: the T/C runs as follows: (endpoint: mean survival time, dose: 100.0 mg/kg/injection, schedule: Q01DX009 (ip), vehicle: saline) 98 % of control; (endpoint: mean survival time, dose: 200.0 mg/kg/injection, schedule: Q01DX009 (ip), vehicle: saline) 98 % of control; (endpoint: mean survival time, dose: 400.0 mg/kg/injection, schedule: Q01DX009 (ip), vehicle: saline) 101 % of control.
As for `Cn1cnc([N+](=O)[O-])c1S(=O)(=O)NCN1CCOCC1`, the T/C was 95 % of control (endpoint: mean survival time, dose: 6.25 mg/kg/injection, schedule: Q01DX009 (ip), vehicle: Klucel (hydroxypropylcellulose) (HPC)); 118 % of control and 101 % of control (endpoint: mean survival time, dose: 12.5 mg/kg/injection, schedule: Q01DX009 (ip), vehicle: Klucel (hydroxypropylcellulose) (HPC)); 101 % of control and 106 % of control (endpoint: mean survival time, dose: 25.0 mg/kg/injection, schedule: Q01DX009 (ip), vehicle: Klucel (hydroxypropylcellulose) (HPC)); 95 % of control and 110 % of control (endpoint: mean survival time, dose: 50.0 mg/kg/injection, schedule: Q01DX009 (ip), vehicle: Klucel (hydroxypropylcellulose) (HPC)); 96 % of control (endpoint: mean survival time, dose: 100.0 mg/kg/injection, schedule: Q01DX009 (ip), vehicle: Klucel (hydroxypropylcellulose) (HPC)).
For `CCOC(=O)c1c(C)csc1NC(C)=O`, the T/C under setting [1] was 108 % of control; the T/C under setting [2] was 96 % of control; the T/C under setting [3] is 97 % of control; the T/C under setting [4] was 98 % of control; the T/C under setting [5] is 90 % of control; the T/C under setting [6] was 93 % of control.
`CCCCCCCC/C=C\CCCCCCCCNP(=O)(OCCCCCCCCCCCC)OCCCCCCCCCCCC`: the T/C is 93 % of control (endpoint: mean survival time, dose: 50.0 mg/kg/injection, schedule: Q04DX002 (ip), vehicle: saline with Tween-80); 96 % of control under setting [7]; 89 % of control under setting [8]; 100 % of control under setting [9].
Consider `O=C(O)C1CCC(=O)N1C(=O)OCc1ccccc1` (stereo not given), for which the T/C was 95 % of control under setting [1], 92 % of control under setting [3] and 90 % of control under setting [5].
Regarding `NC(=S)c1ncn(C2OC(CO)C(O)C2O)c1N` (stereo not given), the T/C by setting is: (endpoint: mean survival time, dose: 100.0 mg/kg/injection, schedule: Q04DX002 (ip), vehicle: saline) 115 % of control; (endpoint: mean survival time, dose: 200.0 mg/kg/injection, schedule: Q04DX002 (ip), vehicle: saline) 110 % of control; (endpoint: median survival time, dose: 25.0 mg/kg/injection, schedule: Q01DX005 (ip), vehicle: saline with Tween-80) 111 % of control; (endpoint: median survival time, dose: 25.0 mg/kg/injection, schedule: Q01DX005 (ip), vehicle: saline) 113 % of control; (endpoint: median survival time, dose: 25.0 mg/kg/injection, schedule: Q01DX009 (ip), vehicle: saline with Tween-80) 122 % of control; (endpoint: median survival time, dose: 25.0 mg/kg/injection, schedule: Q01DX009 (ip), vehicle: saline) 115 % of control. For the same molecule, the T/C (endpoint: median survival time, dose: 50.0 mg/kg/injection, schedule: Q01DX005 (ip), vehicle: saline with Tween-80) is 120 % of control; the T/C (endpoint: median survival time, dose: 100.0 mg/kg/injection, schedule: Q01DX005 (ip), vehicle: saline) was 166 % of control; the T/C (endpoint: median survival time, dose: 100.0 mg/kg/injection, schedule: Q01DX009 (ip), vehicle: saline with Tween-80) is 160 % of control; the T/C (endpoint: median survival time, dose: 200.0 mg/kg/injection, schedule: Q01DX005 (ip), vehicle: saline with Tween-80) is 171 % of control; the T/C (endpoint: median survival time, dose: 200.0 mg/kg/injection, schedule: Q01DX005 (ip), vehicle: saline) was 166 % of control; the T/C (endpoint: median survival time, dose: 200.0 mg/kg/injection, schedule: Q01DX009 (ip), vehicle: saline with Tween-80) was 159 % of control. Further, the T/C reads like this: (endpoint: median survival time, dose: 200.0 mg/kg/injection, schedule: Q01DX009 (ip), vehicle: saline) 157 % of control; (endpoint: median survival time, dose: 400.0 mg/kg/injection, schedule: Q01DX005 (ip), vehicle: saline with Tween-80) 161 % of control; (endpoint: median survival time, dose: 400.0 mg/kg/injection, schedule: Q01DX005 (ip), vehicle: saline) 180 % of control; (endpoint: median survival time, dose: 400.0 mg/kg/injection, schedule: Q01DX009 (ip), vehicle: saline with Tween-80) 160 % of control; (endpoint: median survival time, dose: 400.0 mg/kg/injection, schedule: Q01DX009 (ip), vehicle: saline) 155 % of control.
For the molecule `O=C(O)CC(C(=O)O)c1ccc([N+](=O)[O-])cc1` (stereo not given), the T/C was 93 % of control under setting [1], 93 % of control under setting [3] and 97 % of control under setting [5].
For the molecule `CCOC(=O)/C(C#N)=N/Nc1cccc(Cl)c1Cl`, the T/C was 96 % of control under setting [7], 96 % of control under setting [8] and 100 % of control under setting [9].
Regarding `CCN(CC)c1ccc2cc3ccc(=[N+](CC)CC)cc-3oc2c1`, the T/C (endpoint: mean survival time, dose: 9.0 mg/kg/injection, schedule: Q01DX010 (ip), vehicle: saline) was 106 % of control.
`O=C(C=P(CC[PH+](Cc1ccccc1)Cc1ccccc1)(Cc1ccccc1)Cc1ccccc1)c1ccccc1.[Cl][Pd][Cl]`: the T/C is 98 % of control (endpoint: mean survival time, dose: 3.13 mg/kg/injection, schedule: Q04DX003 (ip), vehicle: distilled water + Tween-80); 100 % of control (endpoint: mean survival time, dose: 6.25 mg/kg/injection, schedule: Q04DX003 (ip), vehicle: distilled water + Tween-80); 104 % of control (endpoint: mean survival time, dose: 12.5 mg/kg/injection, schedule: Q04DX003 (ip), vehicle: distilled water + Tween-80); 102 % of control (endpoint: mean survival time, dose: 25.0 mg/kg/injection, schedule: Q04DX003 (ip), vehicle: distilled water + Tween-80); 96 % of control (endpoint: mean survival time, dose: 50.0 mg/kg/injection, schedule: Q04DX003 (ip), vehicle: distilled water + Tween-80); 96 % of control (endpoint: mean survival time, dose: 100.0 mg/kg/injection, schedule: Q04DX003 (ip), vehicle: distilled water + Tween-80). Further, the T/C (endpoint: mean survival time, dose: 200.0 mg/kg/injection, schedule: Q04DX003 (ip), vehicle: distilled water + Tween-80) was 96 % of control.
With `O=c1[nH]c(=O)n(C(c2ccccc2)(c2ccccc2)c2ccccc2)cc1N(CCO)CCO`, the T/C (endpoint: mean survival time, dose: 50.0 mg/kg/injection, schedule: Q01DX001 (ip), vehicle: saline) is 91 % of control; the T/C (endpoint: mean survival time, dose: 100.0 mg/kg/injection, schedule: Q01DX001 (ip), vehicle: saline) is 100 % of control; the T/C (endpoint: mean survival time, dose: 200.0 mg/kg/injection, schedule: Q01DX001 (ip), vehicle: saline) was 87 % of control; the T/C (endpoint: mean survival time, dose: 400.0 mg/kg/injection, schedule: Q01DX001 (ip), vehicle: saline) was 91 % of control.
Turning to `O=C(Nc1cccc2c1C(=O)c1ccc(Nc3cc(NC(=O)c4ccccc4)c4c(c3)C(=O)c3ccccc3C4=O)cc1C2=O)c1ccccc1`, the T/C is 106 % of control under setting [1]; 102 % of control under setting [2]; 102 % of control under setting [3]; 102 % of control under setting [4]; 119 % of control under setting [5]; 96 % of control under setting [6].
Take `CC(=O)Nc1ccc(C)cc1Cl`: the T/C is 96 % of control (endpoint: mean survival time, dose: 100.0 mg/kg/injection, schedule: Q01DX001 (ip), vehicle: saline with Tween-80); 100 % of control (endpoint: mean survival time, dose: 200.0 mg/kg/injection, schedule: Q01DX001 (ip), vehicle: saline with Tween-80); 93 % of control (endpoint: mean survival time, dose: 400.0 mg/kg/injection, schedule: Q01DX001 (ip), vehicle: saline with Tween-80).
On to `O=c1nc(NC2CCCCCCCCCCC2)ccn1C1OC(CO)C(O)C1O` (stereo not given), for which the T/C was 101 % of control (endpoint: median survival time, dose: 12.5 mg/kg/injection, schedule: Q01DX005 (ip), vehicle: distilled water + Tween-80); 102 % of control (endpoint: median survival time, dose: 25.0 mg/kg/injection, schedule: Q01DX005 (ip), vehicle: distilled water + Tween-80); 105 % of control (endpoint: median survival time, dose: 50.0 mg/kg/injection, schedule: Q01DX005 (ip), vehicle: distilled water + Tween-80); 93 % of control (endpoint: median survival time, dose: 100.0 mg/kg/injection, schedule: Q01DX005 (ip), vehicle: distilled water + Tween-80); 86 % of control (endpoint: median survival time, dose: 200.0 mg/kg/injection, schedule: Q01DX005 (ip), vehicle: distilled water + Tween-80).
